Experimental findings from PMC11521937, “Expression and characterization of pantothenate energy‐coupling factor transporters as an anti‐infective drug target” (Protein Science : A Publication of the Protein Society, 2024) are described below.

Read-outs that look alike come from different tables or passages of the source.

Data set [1] has as its target ECF‐FolT2 (Lactobacillus delbrueckii subsp. bulgaricus, UniProt Q1G929+Q1GBI8+Q1GBI9+Q1GBJ0). Kind of data set: SPR binding to immobilized ECF‐FolT2. The conditions noted are these: for Kd: n = 2. The protocol: The ECF‐PanT, ECF‐module, and ECF‐FolT2, each bearing a histidine tag, were immobilized on a high‐affinity poly‐nitrilotriacetic acid (poly‐NTA) sensor chip, which was initially activated using NiCl2.
Additionally, the protein was maintained in the buffer containing 5% (v/v) DMSO. For a more in‐depth description of the procedures, please refer to Appendix S1.
Surface plasmon resonance (SPR)
The SPR binding studies were performed using a Reichert 4SPR surface plasmon resonance spectrometer (Reichert Technologies, Buffalo, NY, USA), and medium–density NTA derivatized polycarboxylate hydrogel NiHC200M sensor chips (XanTec Bioanalytics, Düsseldorf, Germany). The experimental procedure involved two rounds of nickel activation and one immobilization step at a […]
standard protocol as provided by Xantec bioanalytics with a slight modification based on the recombinant proteins. The flow-cell 4 was left blank to serve as a reference.
The immobilization buffer employed for the immobilization process consisted of 10 mM HEPES with a pH of 7.5, 50 mM NaCl, 50 µM EDTA, and 0.05% DDM without DMSO. Following the immobilization step, for the binding study of the compounds, the running buffer was exchanged for the mentioned buffer with 5% v/v DMSO. This was done to ensure consistency in the percentage of DMSO present in the solutions containing the respective testing inhibitors, as these inhibitors were soluble in the DMSO solvent. By maintaining the same DMSO concentration, we aimed to minimize any potential solvent-related effects on the assay results. All running buffers were filtered and degassed before use.
The system was initially primed with 5 mM NiCl2 with an association and dissociation time of 2 min for each to activate the NTA sensor chip. Then, the recombinant proteins with a concentration of 200 nM were injected at a flow rate of 10 µL/min for 8 min. Finally, the baseline check with the running […]
First, the calibration curve for correction of the DMSO effect was prepared; the concentrations were […]
concentration of DMSO in all the samples was set to 5% v/v DMSO. The samples (200 µL) were loaded on a 96-well plate and were injected at a flow rate of 50 μL/min. Single-cycle kinetics were applied for KD determination. The association time was set to 60 s, and the dissociation phase was recorded for 120 s. For surface regeneration, 0.35 M EDTA (pH 8.5) and 0.1 M NaOH were used. Data processing and […]
were calculated by sequential subtractions of the corresponding curves obtained from the reference flow cell and the running buffer (blank). SPR responses were expressed in the resonance unit (RU). The KD values were calculated by global fitting of the kinetic curves as well as fitting of the steady state binding responses to a 1:1 Langmuir interaction model.
The SPR experiments were conducted at least two times, representing independent replicates. The […]
interactions, are presented in Figure S12 for ECF-PanT, Figure S13 for ECF-FolT2, and Figure S14 for […]

The nature of data set [2]: In vitro MTT cytotoxicity assay, HepG2. Type of data set: cell-based, human. The conditions noted are these: human, read-out: Percent (%) cell viability at 100 μM, HepG2 cells. The protocol: In vitro cytotoxicity evaluation […]
with minor modifications, which will be detailed below.
To obtain information regarding the toxicity of our compounds, their impact on the viability of human cells was investigated. HepG2 and A549 cells (2 × 10^4 cells per well) were seeded in 96-well, flat-bottomed culture plates in 100 µL culture medium (DMEM containing 10% fetal calve serum, 1% penicillin-streptomycin). Twenty-four hours after seeding the cells, medium was removed and replaced by medium containing test compounds in a final DMSO concentration of 1%. Compounds were tested in duplicates at a single concentration in 1% DMSO/medium. Epirubicin and doxorubicin were used as positive controls in serial dilutions starting from 10 µM, and rifampicin was used as a negative control (at 100 µM). The living cell mass was determined 48 h after treatment with compounds by adding 0.1 volumes of 3-(4,5-dimethylthiazol-2-yl)-2,5-diphenyltetrazolium bromide (MTT) solution (5 mg/mL sterile PBS) (Sigma, St. Louis, MO) to the wells. After incubating the cells for 30 min at 37 °C (atmosphere containing 5% CO2), medium was removed and MTT crystals were dissolved in 75 µL of a solution containing 10% SDS and 0.5% acetic acid in DMSO. The optical density (OD) of the samples was determined photometrically at 570 nm in a PHERAstar Omega plate reader (BMG labtech, Ortenberg, Germany). To obtain percent viability for each sample, their ODs were related to those of DMSO controls. At least two independent measurements were performed for each compound. The calculation of IC50 was performed using the nonlinear regression function of GraphPad Prism 10 (GraphPad Software, San Diego, CA, USA). […]
On the technique in general: Tetrazolium assays rely on reduction of a dye to a coloured formazan, in cell work by metabolically active cells.

Where [3] appears, read: Equilibrium, K D, SPR, L. delbrueckii ECF‐FolT2, steady state fit.
The mark [4] stands for this setting: Kinetic, K D, SPR, L. delbrueckii ECF‐FolT2, global fit of kinetic curves.
Setting [5] is: SPR, L. delbrueckii ECF‐FolT2, global fit of kinetic curves, read-out: Kinetic, K D.
[6] abbreviates: SPR, L. delbrueckii ECF‐FolT2, steady state fit, read-out: Equilibrium, K D.
Setting [7] is: pH 7.5, SPR, L. delbrueckii ECF‐FolT2, n = 2, read-out: k a.
Setting [8] is: pH 7.5, SPR, L. delbrueckii ECF‐FolT2, n = 2, read-out: k d.

Chain of ECF‐FolT2 (Q1GBJ0 whole entry): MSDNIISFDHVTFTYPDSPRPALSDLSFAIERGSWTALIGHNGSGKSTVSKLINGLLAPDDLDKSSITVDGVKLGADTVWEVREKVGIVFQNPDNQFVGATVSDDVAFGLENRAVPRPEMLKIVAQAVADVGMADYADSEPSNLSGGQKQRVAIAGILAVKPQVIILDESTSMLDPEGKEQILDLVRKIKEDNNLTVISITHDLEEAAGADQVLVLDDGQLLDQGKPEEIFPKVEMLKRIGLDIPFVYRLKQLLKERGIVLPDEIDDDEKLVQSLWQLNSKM
Chain of ECF‐FolT2 (Q1GBI9 whole entry): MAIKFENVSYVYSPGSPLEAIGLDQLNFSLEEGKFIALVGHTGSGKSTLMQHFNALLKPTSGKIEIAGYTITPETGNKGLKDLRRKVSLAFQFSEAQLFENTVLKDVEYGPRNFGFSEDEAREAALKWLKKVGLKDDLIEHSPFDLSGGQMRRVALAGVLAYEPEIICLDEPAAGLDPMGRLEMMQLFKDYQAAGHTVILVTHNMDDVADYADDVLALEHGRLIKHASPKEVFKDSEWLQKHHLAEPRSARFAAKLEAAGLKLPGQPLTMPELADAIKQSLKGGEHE
Chain of ECF‐FolT2 (Q1GBI8 entry or part of it): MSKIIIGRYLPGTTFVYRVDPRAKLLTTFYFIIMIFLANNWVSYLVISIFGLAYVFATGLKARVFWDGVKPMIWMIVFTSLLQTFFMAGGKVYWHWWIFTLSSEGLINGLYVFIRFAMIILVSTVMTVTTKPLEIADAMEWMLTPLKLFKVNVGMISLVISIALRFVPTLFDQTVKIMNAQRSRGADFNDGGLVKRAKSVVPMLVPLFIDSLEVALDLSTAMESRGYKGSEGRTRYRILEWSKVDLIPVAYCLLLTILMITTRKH
Chain of ECF‐FolT2 (Q1G929 entry or part of it): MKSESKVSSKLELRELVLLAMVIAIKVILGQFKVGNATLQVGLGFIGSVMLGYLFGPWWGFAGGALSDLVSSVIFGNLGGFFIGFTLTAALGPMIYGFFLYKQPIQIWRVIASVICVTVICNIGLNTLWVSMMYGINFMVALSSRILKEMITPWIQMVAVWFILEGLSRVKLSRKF

The term viability denotes a read-out of living cells in per cent, often relative to untreated cells. In the case of `O=C(O)c1cc(OCc2cccc3ccccc23)ccc1O` [Compound 1], the Kd in data set [1] (setting [3]) was determined as 300 ± 20 µM; in data set [1] (setting [4]), 294 ± 6 µM. Besides, the viability at 48 h, 100 µM in data set [2] was found to be 20 ± 2%.

With `O=C(O)c1cc(OCc2ccc(Br)c3ccccc23)ccc1O` [Compound 2], the Kd in data set [1] (setting [3]) is 190 ± 20 µM; in data set [1] (setting [4]) it was 185 ± 3 µM. In data set [2], the viability at 48 h, 100 µM was 23 ± 7%.

For the compound `CC(C)(C)OC(=O)Nc1ccc(OCc2cccc3ccccc23)cc1C(=O)O` [Compound 3], the Kd stood at 128 ± 9 µM in data set [1] (setting [3]) and 132 ± 3 µM in data set [1] (setting [4]). In addition, in data set [1] (pH 7.5, read-out: k a), the kon came to 570 ± 10 M⁻¹ s⁻¹. In data set [1] (pH 7.5, read-out: k d), the koff was 0.0755 ± 0.0008 s⁻¹. Also, the viability at 48 h, 100 µM in data set [2] came out at 49 ± 3%.

For the compound `O=C(O)c1cccc(NCc2ccc(-c3ccc(Cl)cc3)o2)c1` [Compound 4], the Kd in data set [1] (setting [5]) came out at 353 ± 5 µM; in data set [1] (setting [6]) it was 340 ± 10 µM. The kon in data set [1] (setting [7]) amounted to 325 ± 5 M⁻¹ s⁻¹. Moreover, the koff in data set [1] (setting [8]) worked out at 0.115 ± 0.001 s⁻¹. The viability at 48 h, 100 µM in data set [2] (HepG2 cells) turned out to be 88 ± 9%.

On to `O=C(O)c1cccc(NCc2ccc(-c3cccc(Cl)c3)o2)c1` [Compound 5], for which the figures for the Kd in data set [1] (setting [5]) and in data set [1] (setting [6]) were 328 ± 6 µM and 300 ± 30 µM, respectively. Besides, in data set [1] (setting [7]), the kon was determined as 570 ± 10 M⁻¹ s⁻¹. The koff in data set [1] (setting [8]) was determined as 0.187 ± 0.003 s⁻¹. Further, the viability at 48 h, 100 µM in data set [2] (HepG2 cells) amounted to 106 ± 8%.

In the case of `O=C(O)c1cccc(NCc2ccc(-c3ccccc3Cl)o2)c1` [Compound 6], the values for the Kd in data set [1] (setting [5]) and in data set [1] (setting [6]) were 231 ± 5 µM and 230 ± 10 µM, respectively. Also, the kon in data set [1] (setting [7]) was determined as 100000 M⁻¹ s⁻¹. Besides, the koff in data set [1] (setting [8]) is 22 ± 3 s⁻¹. Also, the viability at 48 h, 100 µM in data set [2] (HepG2 cells) was 105 ± 3%.
